Test results reported in ChEMBL document CHEMBL4400575, “PROTAC Molecules for the Treatment of Autoimmune Disorders” (ACS Med Chem Lett, 2019).

molecular target: Protein cereblon (Homo sapiens, UniProt Q96SW2); experiment: Displacement of (-)-thalidomide-alexa fluor/pomalidomide-fluorescein conjugated probe from […] fused CRBN (unknown origin) measured after 60 mins by fluorescence polarization assay
Sequence (Q96SW2 whole entry, the tested form may be a part): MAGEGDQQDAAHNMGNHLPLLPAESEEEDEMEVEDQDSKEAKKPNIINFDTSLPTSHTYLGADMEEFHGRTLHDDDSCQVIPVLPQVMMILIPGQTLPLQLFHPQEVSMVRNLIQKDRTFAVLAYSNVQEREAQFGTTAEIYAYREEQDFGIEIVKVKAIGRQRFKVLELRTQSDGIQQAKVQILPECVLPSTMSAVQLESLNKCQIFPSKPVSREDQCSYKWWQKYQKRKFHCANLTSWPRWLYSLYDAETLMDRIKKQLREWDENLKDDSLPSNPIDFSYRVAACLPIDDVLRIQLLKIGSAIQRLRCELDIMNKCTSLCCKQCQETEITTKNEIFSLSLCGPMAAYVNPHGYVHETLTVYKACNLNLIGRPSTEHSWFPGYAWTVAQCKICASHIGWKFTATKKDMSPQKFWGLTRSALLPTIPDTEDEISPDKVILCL

Kd, 10 to 50 µM:
O=C1CCC(Nc2ccccc2N2CCOCC2)C(=O)N1 (stereo not drawn)

Kd, ≤ 10 µM:
CC(=O)CCc1ccc(OC2CCC(=O)NC2=O)cc1 (stereo not drawn)
CN1CCN(c2ccc(NC3CCC(=O)NC3=O)cc2)CC1 (stereo not drawn)
Cc1sc2c(c1C)C(c1ccc(Cl)cc1)=N[C@@H](CC(=O)NCCCCCCCCN1CCN(c3ccc(NC4CCC(=O)NC4=O)cc3)CC1)c1nnc(C)n1-2 (stereo partly drawn)
CC(C)(C)OC(=O)N1CCN(c2ccc(OC3CCC(=O)NC3=O)cc2)CC1 (stereo not drawn)
N#Cc1ccc(-c2ccc(OC3CCC(=O)NC3=O)cc2)cc1 (stereo not drawn)
COc1cccc(N(C)C2CCC(=O)NC2=O)c1 (stereo not drawn)
Cc1nnc2n1-c1ccc(-c3cnn(CCCCCCN4CCN(c5ccc(NC6CCC(=O)NC6=O)cc5)CC4)c3)cc1C(c1ccc(Cl)cc1)=NC21CC1 (stereo not drawn)
